Results: US20230087609A1, “USE OF A SOLUBLE GUANYLATE CYCLASE (sGC) STIMULATOR OR OF A COMBINATION OF A sGC STIMULATOR AND AN sGC ACTIVATOR FOR CONDITIONS WHEREIN THE HEME GROUP OF sGC IS OXIDIZED OR WHEREIN sGC IS DEFICIENT IN HEME” (Universiteit Maastricht, priority 2020, published 2023)

Target: T1, human apo-sGC (sGCα1 / mutant sGCβ1H105F) (Homo sapiens, UniProt Q02153, H105F)
T1 construct: His tag; made in house; host or cells: Sf9 cells infected with recombinant baculoviruses (provided by E. Martin); sonicated lysate, supernatant used unpurified
T1 sequence (Q02153 1-619 H105F): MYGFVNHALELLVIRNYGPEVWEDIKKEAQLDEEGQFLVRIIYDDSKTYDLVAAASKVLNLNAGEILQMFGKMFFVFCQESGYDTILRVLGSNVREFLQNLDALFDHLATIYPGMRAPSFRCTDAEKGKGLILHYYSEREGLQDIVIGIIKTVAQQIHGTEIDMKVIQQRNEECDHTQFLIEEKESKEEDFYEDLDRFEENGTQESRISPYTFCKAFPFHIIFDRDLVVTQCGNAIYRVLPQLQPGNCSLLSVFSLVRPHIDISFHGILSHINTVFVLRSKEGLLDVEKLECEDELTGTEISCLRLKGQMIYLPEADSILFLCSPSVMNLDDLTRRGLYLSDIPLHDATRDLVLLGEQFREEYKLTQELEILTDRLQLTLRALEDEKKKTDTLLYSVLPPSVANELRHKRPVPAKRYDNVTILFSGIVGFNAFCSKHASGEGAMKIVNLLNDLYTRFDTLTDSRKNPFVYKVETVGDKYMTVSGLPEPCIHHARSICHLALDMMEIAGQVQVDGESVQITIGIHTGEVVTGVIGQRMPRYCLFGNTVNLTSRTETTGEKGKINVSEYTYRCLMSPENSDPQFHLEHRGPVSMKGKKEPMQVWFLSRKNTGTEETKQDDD
T1 sequence (Q02108 1-690 partner): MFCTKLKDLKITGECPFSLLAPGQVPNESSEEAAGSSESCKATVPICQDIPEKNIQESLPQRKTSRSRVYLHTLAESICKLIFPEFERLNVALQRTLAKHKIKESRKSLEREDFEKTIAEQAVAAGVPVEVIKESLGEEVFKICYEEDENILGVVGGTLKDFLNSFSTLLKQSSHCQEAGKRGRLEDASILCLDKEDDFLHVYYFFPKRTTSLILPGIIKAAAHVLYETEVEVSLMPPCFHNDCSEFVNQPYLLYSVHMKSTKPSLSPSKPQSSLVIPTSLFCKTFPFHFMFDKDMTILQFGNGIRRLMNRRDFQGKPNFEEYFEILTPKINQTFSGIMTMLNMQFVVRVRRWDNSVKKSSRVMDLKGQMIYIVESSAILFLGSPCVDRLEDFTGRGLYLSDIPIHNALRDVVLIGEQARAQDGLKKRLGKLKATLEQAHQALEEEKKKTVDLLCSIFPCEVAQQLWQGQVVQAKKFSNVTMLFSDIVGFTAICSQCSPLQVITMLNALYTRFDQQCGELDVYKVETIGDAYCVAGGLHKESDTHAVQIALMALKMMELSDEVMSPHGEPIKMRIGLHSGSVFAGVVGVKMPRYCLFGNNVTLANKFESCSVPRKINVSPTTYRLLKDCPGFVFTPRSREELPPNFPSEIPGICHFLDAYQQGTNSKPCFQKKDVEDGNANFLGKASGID
Assay: sGC activity of human apo-sGC expressed in SF-9 cells
Assay type: biochemical
Description: To measure sGC activity, cells were stimulated with 250 μM DEA/NO or 10 μM BAY58-2667 for 3 min at 37° C. Thereafter, cells were immediately lysed in 80% ethanol. Cells were scraped and, after evaporation of ethanol, re-suspended in assay buffer and sonicated. Measurement of sGC activity in crude homogenates of mouse tissue was performed as previously described (Nedvetsky et al., Brain Res. 2002; 950(1-2):148-154. doi: 10.1016/50006-8993(02)03015-9).[9] Briefly, all samples were measured as the formation of cGMP at 37° C. during 10 min in a total incubation volume of […] containing 50 mM triethanolamine-HCl (pH 7.4), 3 mM MgCl2, 3 mM glutathione (Carl Roth, Karlsruhe, Germany), 1 mM IBMX, […], 5 mM creatine phosphate, 0.25 mg/ml creatine kinase and 1 mM or 0.5 mM GTP. After adding sGC activator in the absence or presence of the sGC stimulator the reaction was started by application of GTP solution. […] Thereafter the amount of cGMP was subsequently determined by a commercial enzyme immunoassay kit (Enzo Life Sciences, Lorrach, Germany or Biotrend, Cologne, Germany). […]
Recombinant baculoviruses containing the cDNAs for the sGCa1 subunit with a His tag and mutant sGCβ31H105F with a His tag of human sGC were provided by E. Martin (Houston, Tex., USA). […] Protein concentrations were determined by the RC DC protein assay kit (Bio-Rad, Cat. no. 5000122).

In the case of `Nc1nc(-c2nn(Cc3ccccc3F)c3ncccc23)ncc1C1CC1` [BAY 41-2272, 5-cyclopropyl-2-[1-(2-fluoro-benzyl)-1H-pyrazolo[3,4-b]pyridin-3-yl]-pyrimidin-4-ylamine], the “sGC activity / cGMP formation in presence of ODQ” value (10 μM BAY 41-2272 + 10 μM ODQ (FIG. 8)) is reported as “improves the formation of cGMP” and the “sGC activity / cGMP production” value (10 μM BAY 41-2272 alone (FIG. 8)) is reported as “activated and cGMP is (increasingly) produced”.
